Experimental data as given in patent US5434171A, “Preparation of 3,4,4-trisubstituted-piperidinyl-N-alkylcarboxylates and intermediates” (priority 1993, dated 1995).
Where a name gives a salt, the structure may show the parent alone.

Legend:
pKa determination = type: physicochemical; details: 67% aq. dmf
[1] = Description: Alternatively, a crystalline salt of compound 19F.B. (free base) can be prepared as illustrated in Scheme 2 supra. Crystallization studies were conducted using 17 different acids with three solvents; ethyl acetate, acetone, and ethanol.

pKa (pKa determination) | stability of crystalline salt of 19F.B. [1] | Structure (SMILES)
7.68 |  | CC(C)COC(=O)CN [Isobutyl glycine, p-toluenesulfonic acid salt]
 | crystalline salts stable at 25 °C | O=C(O)C[C@H](O)C(=O)O [L-malic]
 | crystalline salts stable at 25 °C | Cl [hydrochloric]
